From patent US20080261994A1, “CYCLOPROPANE COMPOUNDS AND PHARMACEUTICAL USE THEREOF” (Japan Tobacco Inc., priority 2003, published 2008) come the findings set out here.

Common to all, as to type: biochemical
One assay concerns the target T1, aggrecanase-1 (Homo sapiens, UniProt O75173).
T1 sequence (O75173 213-837): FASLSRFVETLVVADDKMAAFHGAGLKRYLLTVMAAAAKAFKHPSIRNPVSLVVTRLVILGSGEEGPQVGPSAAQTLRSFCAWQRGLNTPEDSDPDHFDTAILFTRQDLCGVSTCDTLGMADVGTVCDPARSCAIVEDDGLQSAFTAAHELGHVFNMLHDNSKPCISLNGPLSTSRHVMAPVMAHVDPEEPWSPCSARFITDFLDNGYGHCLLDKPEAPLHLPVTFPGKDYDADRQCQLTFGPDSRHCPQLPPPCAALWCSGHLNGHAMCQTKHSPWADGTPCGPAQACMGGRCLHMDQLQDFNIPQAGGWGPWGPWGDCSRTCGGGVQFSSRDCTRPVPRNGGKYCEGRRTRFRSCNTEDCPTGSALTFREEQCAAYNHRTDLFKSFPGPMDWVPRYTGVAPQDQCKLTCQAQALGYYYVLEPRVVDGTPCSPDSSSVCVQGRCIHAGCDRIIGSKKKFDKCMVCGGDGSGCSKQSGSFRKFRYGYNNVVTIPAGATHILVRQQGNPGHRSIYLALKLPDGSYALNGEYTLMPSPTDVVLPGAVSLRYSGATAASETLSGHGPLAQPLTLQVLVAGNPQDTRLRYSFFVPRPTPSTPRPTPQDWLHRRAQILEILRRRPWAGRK
Put plainly: Aggrecanase-1 inhibitory action (Particle Assay, GAG release from aggrecan-containing polyacrylamide particles). Conditions: aggrecanase-1 inhibitory action; read-out: IC50 AG1 (Experimental Example 1). The method in brief: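 Enzyme and compound incubated with aggrecan-containing polyacrylamide particles in Tris-HCl buffer at 37° C for 15 h. Released GAG in supernatant measured with 1,9-dimethylmethylene blue at 595 nm against chondroitin sulfate standard; % inhibition from enzyme-free and inhibitor-free wells, reported as TC50 (μM).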

The next assay addresses T2, MMP-1 (Homo sapiens, UniProt P03956).
T2 sequence (P03956 100-469): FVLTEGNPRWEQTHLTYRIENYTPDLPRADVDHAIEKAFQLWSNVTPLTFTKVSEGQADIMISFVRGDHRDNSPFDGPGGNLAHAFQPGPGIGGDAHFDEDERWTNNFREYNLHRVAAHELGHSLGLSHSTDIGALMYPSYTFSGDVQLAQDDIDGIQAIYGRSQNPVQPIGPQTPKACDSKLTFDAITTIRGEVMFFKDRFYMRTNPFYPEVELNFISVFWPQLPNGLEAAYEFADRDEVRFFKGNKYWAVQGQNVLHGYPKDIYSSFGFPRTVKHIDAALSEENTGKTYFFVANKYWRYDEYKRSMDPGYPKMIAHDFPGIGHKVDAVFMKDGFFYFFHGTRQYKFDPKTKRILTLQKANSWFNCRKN
Put plainly: MMP-1 inhibitory action (Type I collagen Activity Measurement kit, FITC-labeled collagen type I). The settings on record: MMP-1 inhibitory action, FITC-labeled collagen type I, 37° C. for 3 hr; read-out: IC50 MMP1 (Experimental Example 2).

A further assay deals with T3, Recombinant Human MMP-13 (Homo sapiens, UniProt P45452).
T3 construct: purchased R&D systems 511-MM
Put plainly: MMP-13 inhibitory activity (MMP-13 specific fluorescent substrate with quencher). Conditions: Recombinant Human MMP-13, fluorescent substrate, 25° C. for 1 h; read-out: IC50 MMP13 (Experimental Example 3). The method in brief: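 Recombinant human MMP-13 with test compound, reaction started with quenched fluorogenic peptide 7-MCA-Pro-CHA-Gly-NVal-His-Ala-DPA in Tris-HCl buffer, 1 h at 25 °C, stopped with acetic acid. Fluorescence at Ex 325/Em 405 nm; % inhibition versus enzyme-free and inhibitor-free wells, reported as IC50 (μM).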

Where only a bound is given, the exact number is not on record here.

Take `CC(F)(F)c1cc(-c2ccc(S(=O)(=O)N[C@@]3(C(=O)O)C[C@]3(C)c3ccccc3)s2)no1` [Example 2-107]: the IC50 at aggrecanase-1 was below 100 nM; at MMP-1, below 1000 nM; at Recombinant Human MMP-13, below 100 nM.

In the case of `CC(=O)OCCc1cccc(C2CC2(NS(=O)(=O)c2ccc(-c3ccc(Cl)cc3)s2)C(=O)O)c1` (stereo not drawn) [Example 2-108], the figures for the 50% inhibitory concentration (IC50) on aggrecanase-1, at MMP-1 and on Recombinant Human MMP-13 were below 100 nM, at least 1000 nM and below 100 nM, respectively.

As for `O=C(O)C1(NS(=O)(=O)c2ccc(-c3ccc(Cl)cc3)s2)CC1c1cccc(CCO)c1` (stereo not drawn) [Example 2-109], the IC50 is below 100 nM on aggrecanase-1, at least 10000 nM on MMP-1 and below 100 nM on Recombinant Human MMP-13.

Turning to `COCc1cc(-c2ccc(S(=O)(=O)N[C@@]3(C(=O)O)C[C@@H]3c3ccccc3)s2)no1` [Example 2-110], the IC50 on aggrecanase-1 was below 1000 nM; at MMP-1 it was at least 1000 nM; on Recombinant Human MMP-13 it was below 100 nM.

`O=C(O)[C@]1(NS(=O)(=O)c2ccc(-c3cc(C(F)(F)C(F)(F)F)on3)s2)C[C@@H]1c1ccccc1` [Example 2-111]: the IC50 was at least 1000 nM at aggrecanase-1, at least 10000 nM on MMP-1 and below 1000 nM at Recombinant Human MMP-13.

Turning to `C[C@]1(c2ccccc2)C[C@@]1(NS(=O)(=O)c1ccc(-c2cc(C(F)(F)C(F)(F)F)on2)s1)C(=O)O` [Example 2-112], the IC50 was below 1000 nM on aggrecanase-1, at least 10000 nM at MMP-1 and at least 1000 nM on Recombinant Human MMP-13.

`O=C(O)[C@]1(NS(=O)(=O)c2ccc(-c3cc4ccccc4s3)s2)C[C@@H]1c1ccccc1` [Example 2-113]: the IC50 is below 100 nM on aggrecanase-1, below 1000 nM at MMP-1 and below 100 nM on Recombinant Human MMP-13.

With `O=C(O)[C@]1(NS(=O)(=O)c2ccc(-c3cc(-c4ccccc4)on3)s2)C[C@@H]1c1ccccc1` [Example 2-114], the values for the IC50 on aggrecanase-1, on MMP-1 and on Recombinant Human MMP-13 were at least 1000 nM, below 1000 nM and below 100 nM, respectively.

With `CCC(=O)c1ccc(S(=O)(=O)NC2(C(=O)O)CC2c2ccccc2)s1` (stereo not drawn) [Example 2-116], the IC50 at aggrecanase-1, at MMP-1 and on Recombinant Human MMP-13 was at least 10000 nM in each case.

For `CCCC(=O)c1ccc(S(=O)(=O)NC2(C(=O)O)CC2c2ccccc2)s1` (stereo not drawn) [Example 2-117], the IC50 at aggrecanase-1, on MMP-1 and on Recombinant Human MMP-13 was at least 10000 nM throughout.

As to `O=C(O)[C@]1(NS(=O)(=O)c2ccc(-c3cc(C(F)F)sn3)s2)C[C@@H]1c1ccccc1` [Example 2-119], the results for the IC50 at aggrecanase-1, on MMP-1 and at Recombinant Human MMP-13 were below 100 nM, below 1000 nM and below 100 nM, respectively.

Consider `O=C(O)[C@]1(NS(=O)(=O)c2ccc(-c3cc(CF)sn3)s2)C[C@@H]1c1ccccc1` [Example 2-120], for which the figures for the IC50 on aggrecanase-1, at MMP-1 and on Recombinant Human MMP-13 were below 100 nM, below 1000 nM and below 100 nM, respectively.

For `C[C@]1(c2ccccc2)C[C@@]1(NS(=O)(=O)c1ccc(-c2cc(CF)sn2)s1)C(=O)O` [Example 2-121], the results for the IC50 on aggrecanase-1, on MMP-1 and at Recombinant Human MMP-13 were below 100 nM, below 1000 nM and below 100 nM, respectively.

Turning to `CC(C)C1(c2ccccc2)CC1(NS(=O)(=O)c1ccc(-c2ccc(Cl)cc2)s1)C(=O)O` (stereo not drawn) [Example 2-123], the IC50 is below 1000 nM on aggrecanase-1, at least 10000 nM at MMP-1 and below 1000 nM on Recombinant Human MMP-13.

Regarding `CC(F)(F)c1cc(-c2ccc(S(=O)(=O)N[C@@]3(C(=O)O)C[C@@H]3c3ccccc3)s2)ns1` [Example 2-124], the IC50 at aggrecanase-1 is below 100 nM; at MMP-1, at least 1000 nM; at Recombinant Human MMP-13, below 100 nM.

Turning to `O=C(O)C1(NS(=O)(=O)N2CCc3c([nH]c4ccccc34)C2)CC1c1ccccc1` (stereo not drawn) [Example 2-125], the IC50 on aggrecanase-1, on MMP-1 and on Recombinant Human MMP-13 was at least 10000 nM each time.

For the molecule `O=C(O)C1(NS(=O)(=O)N2CCn3c(nnc3-c3ccccc3)C2)CC1c1ccccc1` (stereo not drawn) [Example 2-126], the IC50 at aggrecanase-1, on MMP-1 and on Recombinant Human MMP-13 was at least 10000 nM in each case.

Consider `O=C(O)C1(NS(=O)(=O)N2CCC(Oc3ccc(Cl)cc3)CC2)CC1c1ccccc1` (stereo not drawn) [Example 2-128], for which the IC50 on aggrecanase-1, on MMP-1 and at Recombinant Human MMP-13 was at least 10000 nM throughout.

As for `CCC1(c2ccccc2)CC1(NS(=O)(=O)c1ccc(-c2ccc(Cl)cc2)s1)C(=O)O` (stereo not drawn) [Example 2-129], the IC50 is below 1000 nM on aggrecanase-1, at least 10000 nM on MMP-1 and below 1000 nM at Recombinant Human MMP-13.

Turning to `CC(C)(O)C#Cc1ccc(S(=O)(=O)N[C@@]2(C(=O)O)C[C@@H]2c2ccccc2)s1` [Example 2-130], the 50% inhibitory concentration (IC50) on aggrecanase-1 is at least 1000 nM; on MMP-1, at least 10000 nM; on Recombinant Human MMP-13 it was at least 1000 nM.

Turning to `C[C@]1(c2ccccc2)C[C@@]1(NS(=O)(=O)c1ccc(-c2ccc(Cl)cn2)s1)C(=O)O` [Example 2-131], the half-inhibitory concentration (IC50) was below 100 nM on aggrecanase-1, at least 1000 nM at MMP-1 and below 1000 nM at Recombinant Human MMP-13.

As to `CC(C)(C)C#Cc1ccc(S(=O)(=O)N[C@@]2(C(=O)O)C[C@@H]2c2ccccc2)s1` [Example 2-132], the IC50 at aggrecanase-1, at MMP-1 and on Recombinant Human MMP-13 was at least 10000 nM throughout.

As for `CCCC#Cc1ccc(S(=O)(=O)N[C@@]2(C(=O)O)C[C@@H]2c2ccccc2)s1` [Example 2-133], the IC50 on aggrecanase-1 was at least 10000 nM; on MMP-1 it was at least 10000 nM; at Recombinant Human MMP-13 it was below 1000 nM.

For the molecule `O=C(O)[C@]1(NS(=O)(=O)c2ccc(-c3cccc(C(F)(F)F)c3)s2)C[C@@H]1c1ccccc1` [Example 2-134], the IC50 at aggrecanase-1 was at least 10000 nM; at MMP-1, at least 10000 nM; on Recombinant Human MMP-13, below 1000 nM.

For `O=C(O)[C@]1(NS(=O)(=O)c2ccc(-c3ccc(Cl)cc3)s2)C[C@@H]1c1cccc(Br)c1` [Example 2-136], the IC50 on aggrecanase-1 was below 1000 nM; on MMP-1 it was at least 1000 nM; at Recombinant Human MMP-13 it was below 100 nM.

With `O=C(O)[C@]1(NS(=O)(=O)c2ccc(-c3cc(CF)on3)cc2)C[C@@H]1c1ccccc1` [Example 2-137], the figures for the IC50 at aggrecanase-1, at MMP-1 and on Recombinant Human MMP-13 were at least 1000 nM, below 1000 nM and below 100 nM, respectively.

In the case of `O=C1O[C@@H]([C@H]2C[C@@]2(NS(=O)(=O)c2ccc(-c3ccc(Cl)cc3)s2)C(=O)O)CN1Cc1ccccc1` [Example 2-139], the results for the IC50 on aggrecanase-1, at MMP-1 and on Recombinant Human MMP-13 were at least 1000 nM, at least 10000 nM and at least 1000 nM, respectively.

As to `O=C(O)[C@]1(NS(=O)(=O)/C=C/c2ccccc2)C[C@@H]1c1ccccc1` [Example 2-140], the results for the IC50 on aggrecanase-1, at MMP-1 and on Recombinant Human MMP-13 were at least 10000 nM, at least 10000 nM and at least 1000 nM, respectively.

Turning to `O=C(O)[C@]1(NS(=O)(=O)c2ccc3c(c2)Cc2cc(F)ccc2-3)C[C@@H]1c1ccccc1` [Example 2-141], the IC50 is below 1000 nM at aggrecanase-1, at least 1000 nM on MMP-1 and below 100 nM at Recombinant Human MMP-13.

As for `O=C(O)[C@]1(NS(=O)(=O)c2ccc3c(c2)Cc2cc(Cl)ccc2-3)C[C@@H]1c1ccccc1` [Example 2-142], the IC50 was below 100 nM at aggrecanase-1, at least 1000 nM at MMP-1 and below 1000 nM on Recombinant Human MMP-13.

As to `O=C(O)C1(NS(=O)(=O)N2CCC(Oc3ccccc3)CC2)CC1c1ccccc1` (stereo not drawn) [Example 2-143], the IC50 on aggrecanase-1 was at least 10000 nM; on MMP-1, at least 10000 nM; on Recombinant Human MMP-13 it was at least 1000 nM.

Take `O=C(O)C1(NS(=O)(=O)N2CCC(Oc3ccc(C(F)(F)F)cc3)CC2)CC1c1ccccc1` (stereo not drawn) [Example 2-144]: the IC50 was at least 10000 nM on aggrecanase-1, at least 10000 nM on MMP-1 and at least 1000 nM on Recombinant Human MMP-13.

For orientation: IC50 means the concentration that gives 50% inhibition.
